Experimental findings from patent publication US20240254118A1, “PRMT5 INHIBITORS AND USES THEREOF” (Gilead Sciences, Inc., priority 2022, published 2024) are described below.

For test [1], the system named is SDMA signal (PRMT5 inhibition) in HCT116 MTAP-deleted cells. Description: Symmetric di-methyl arginine image-based high content screen assay (SDMA assay), HCT116 MTAP-deleted. In kind it is cell-based. The note with it: SDMA assay; for EC50: Homo sapiens, HCT-116, 72 h, 3 days of treatment, cell line not given, taken as HCT116 MTAP-deleted, read-out: EC50 (SDMA assay). The procedure, abridged: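 HCT116 MTAP-deleted cells treated with compound until Day 3, then formalin-fixed, permeabilized and immunostained for SDMA, with DAPI nuclear counterstain. Imaged by high-content microscopy; SDMA read-out is mean Alexa 488 intensity per DAPI-defined cell, reflecting PRMT5 inhibition.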

The subject of test [2] is HCT116 MTAP-deleted cells. As to the kind of experiment: Cell viability assay (CellTiter-Glo, 7 days), HCT116 MTAP-deleted. The following applies: Homo sapiens, HCT-116, 168 h.
Experimental: Control compounds were analyzed in parallel each time for quality control.
In Brief, on Day −1, a serial dilution of stock compounds in DMSO was performed using BioMek liquid handlers and dispensed using Echo acoustic dispenser into 384 well plates. Both tool compounds and sample compounds were spotted in the same plate for a dose response of PRMT5 inhibitors. Compound plates were stored as frozen until the cells were ready for seeding.
On Day 0, 100 HCT WT or HCT116 MTAP-deleted cells were seeded in compound-containing 384 well plates (50 μl per well) in RPMI 1640 media supplemented with 10% heat inactivated fetal bovine serum, Glutamax and penicillin streptomycin using EL460 liquid dispenser 5 μl cassette (BioTek, part no. 7170011). After equilibrating the plate in room temperature, the cells were incubated for 7 days inside the sealed incubator set at 37 °C with 90% humidity and 5% CO2.
On Day 7, the viability of cells was measured using a CTG assay kit (CellTitre-Glo; Promega cat no. G7573). Shortly, 40 μl per well of luminescent cell viability assay reagent were dispensed using EL460 liquid dispenser 5 μl cassette. CTG luminescence signal was measured using an EnVision plate reader (PerkinElmer) in accordance with manufacturer's instruction. The CC50 values for each compound after 7 days of treatment were calculated using 4 parameter non-linear logistical curve fit.
[3] abbreviates: taken as HCT116 WT versus MTAP-deleted.
The mark [4] stands for this setting: taken as HCT116 WT vs MTAP-deleted.

Structures are written as SMILES.

The term EC50 denotes the concentration needed to bring the measured effect to its halfway point. For orientation: CC50 means the concentration that lowers cell viability or growth by half. Higher therefore signals lower toxicity to the cells. For the compound `CN(C(=O)C12CC(C1)C2)N(Cc1ccc(C(F)(F)F)cn1)C(=O)c1ccc2nc(N)c3cnn(C)c3c2c1` [Example 101, 4-amino-N′-(bicyclo[1.1.1]pentane-1-carbonyl)-N′,1-dimethyl-N-[[5-(trifluoromethyl)-2-pyridyl]methyl]pyrazolo[4,3-c]quinoline-8-carbohydrazide], the EC50 in test [1] is 1 to 5 nM. In addition, the “EC50 selectivity (SDMA assay)” value in test [1] (setting [3]) was found to be 108. In test [2], this compound returned a 50% cytotoxic concentration (CC50) of less than 100 nM.
On the same counts, the results for `Cn1ncc2c(N)nc3ccc(C(=O)N(Cc4cc5ccccn5n4)N4CCCCC4=O)cc3c21` [Example 94, 4-amino-1-methyl-N-(2-oxo-1-piperidyl)-N-(pyrazolo[1,5-a]pyridin-2-ylmethyl)pyrazolo[4,3-c]quinoline-8-carboxamide] are less than 1 nM, 133 and less than 100 nM.
Take `CC(=O)N(C)N(Cc1ccc(C(F)(F)F)cc1F)C(=O)c1ccc2nc(N)c3cnn(C)c3c2c1` [Example 39, N′-acetyl-4-amino-N-[[2-fluoro-4-(trifluoromethyl)phenyl]methyl]-N′,1-dimethyl-pyrazolo[4,3-c]quinoline-8-carbohydrazide]: the EC50 in test [1] was less than 1 nM. Further, in test [1] (setting [3]), the “EC50 selectivity (SDMA assay)” value is listed as 25. This compound came in with a CC50 in test [2] of less than 100 nM.
In the case of `CC(=O)N(C)N(Cc1ccc(C#N)cc1Cl)C(=O)c1ccc2nc(N)c3cnn(C)c3c2c1` [Example 406, N′-acetyl-4-amino-N-(2-chloro-4-cyanobenzyl)-N′,1-dimethyl-1H-pyrazolo[4,3-c]quinoline-8-carbohydrazide], in test [1], the EC50 is less than 1 nM. Moreover, in test [1] (setting [4]), the “EC50 selectivity (SDMA assay)” value was 212. The same compound gave a cytotoxic concentration (CC50) in test [2] of less than 100 nM.
Consider `CC(=O)N(C)N(Cc1ccc(-c2cnn(C(F)F)c2)cc1F)C(=O)c1ccc2nc(N)c3cnn(C)c3c2c1` [Example 242, N′-acetyl-4-amino-N-(4-(1-(difluoromethyl)-1H-pyrazol-4-yl)-2-fluorobenzyl)-N′,1-dimethyl-1H-pyrazolo[4,3-c]quinoline-8-carbohydrazide], for which the 50% effective concentration (EC50) in test [1] is less than 1 nM. The “EC50 selectivity (SDMA assay)” value in test [1] (setting [3]) was found to be 77. The 50% cytotoxic concentration (CC50) in test [2] was less than 100 nM.
The like results for `CN(C(=O)c1cscn1)N(Cc1ccc(C(F)(F)F)cn1)C(=O)c1ccc2nc(N)c3cnn(C)c3c2c1` [Example 106, N′-(4-amino-1-methyl-1H-pyrazolo[4,3-c]quinoline-8-carbonyl)-N-methyl-N′-((5-(trifluoromethyl)pyridin-2-yl)methyl)thiazole-4-carbohydrazide] were, in that order, less than 1 nM, 16 and less than 100 nM.
In the case of `CN(C(=O)c1cocn1)N(Cc1ccc(C(F)(F)F)cc1F)C(=O)c1ccc2nc(N)c3cnn(C)c3c2c1` [Example 166, N′-(4-amino-1-methyl-1H-pyrazolo[4,3-c]quinoline-8-carbonyl)-N′-(2-fluoro-4-(trifluoromethyl)benzyl)-N-methyloxazole-4-carbohydrazide], in test [1], the 50% effective concentration (EC50) was less than 1 nM. In test [1] (setting [3]), the “EC50 selectivity (SDMA assay)” value is reported as 21. Moreover, in test [2], the cytotoxic concentration (CC50) is less than 100 nM.
The like results for `CC(=O)N(CC(F)(F)F)N(Cc1ccc(C(F)(F)F)cn1)C(=O)c1ccc2nc(N)c3cnn(C)c3c2c1` [Example 116, N′-acetyl-4-amino-1-methyl-N′-(2,2,2-trifluoroethyl)-N-[[5-(trifluoromethyl)-2-pyridyl]methyl]pyrazolo[4,3-c]quinoline-8-carbohydrazide] were, in that order, 1 to 5 nM, 189 and 100 to 1000 nM.
In the case of `CCC(=O)N(C)N(Cc1ncc(C(F)(F)F)cc1Cl)C(=O)c1ccc2nc(N)c3cnn(C)c3c2c1` [Example 454, 4-amino-N-((3-chloro-5-(trifluoromethyl)pyridin-2-yl)methyl)-N′,1-dimethyl-N′-propionyl-1H-pyrazolo[4,3-c]quinoline-8-carbohydrazide], in test [1], the EC50 is 1 to 5 nM. Besides, the “EC50 selectivity (SDMA assay)” value in test [1] (setting [4]) was 421. This compound yielded a CC50 in test [2] of less than 100 nM.
Take `Nc1nc2cc(F)c(C(=O)N3CCCCN3c3ccc(C(F)(F)F)cn3)cc2c2cscc12` [Example 131, (4-amino-7-fluoro-thieno[3,4-c]quinolin-8-yl)-[2-[5-(trifluoromethyl)-2-pyridyl]hexahydropyridazin-1-yl]methanone]: the half-maximal effective concentration (EC50) in test [1] is more than 5 nM. Also, the “EC50 selectivity (SDMA assay)” value in test [1] (setting [3]) was 279. The CC50 in test [2] is more than 1000 nM.
On the same counts, the results for `Cn1ncc2c(N)nc3cc(F)c(C(=O)N(Cc4ccc(C(F)(F)F)cc4F)n4ccnc4)cc3c21` [Example 200, 4-amino-7-fluoro-N-[[2-fluoro-4-(trifluoromethyl)phenyl]methyl]-N-imidazol-1-yl-1-methyl-pyrazolo[4,3-c]quinoline-8-carboxamide] are less than 1 nM, 6 and less than 100 nM.
Consider `CC(=O)N(C)N(Cc1c(Cl)ccc(F)c1F)C(=O)c1ccc2nc(N)c3cnn(C)c3c2c1` [Example 448, N′-acetyl-4-amino-N-(6-chloro-2,3-difluorobenzyl)-N′,1-dimethyl-1H-pyrazolo[4,3-c]quinoline-8-carbohydrazide], for which, in test [1], the concentration giving a half-maximal response (EC50) was 1 to 5 nM. The “EC50 selectivity (SDMA assay)” value in test [1] (setting [4]) is 224. Moreover, the CC50 in test [2] was less than 100 nM.
The like results for `CC(=O)N(C)N(Cc1ccc(C(F)(F)F)nc1C)C(=O)c1ccc2nc(N)c3cnn(C)c3c2c1` [Example 416, N′-acetyl-4-amino-N′,1-dimethyl-N-((2-methyl-6-(trifluoromethyl)pyridin-3-yl)methyl)-1H-pyrazolo[4,3-c]quinoline-8-carbohydrazide] were, in that order, 1 to 5 nM, 133 and less than 100 nM.
On to `CN(C(=O)C12CC(C1)C2)N(Cc1ccc(C(F)(F)F)nn1)C(=O)c1ccc2nc(N)c3cnn(C)c3c2c1` [Example 248, 4-amino-N′-(bicyclo[1.1.1]pentane-1-carbonyl)-N′,1-dimethyl-N-((6-(trifluoromethyl)pyridazin-3-yl)methyl)-1H-pyrazolo[4,3-c]quinoline-8-carbohydrazide], for which the EC50 in test [1] was 1 to 5 nM. The “EC50 selectivity (SDMA assay)” value in test [1] (setting [3]) was 536. In test [2], this compound registered a CC50 of 100 to 1000 nM.
`Cn1ncc2c(N)nc3ccc(C(=O)N(Cc4ccc(F)cc4F)N4CCOCC4)cc3c21` [Example 365, 4-amino-N-(2,4-difluorobenzyl)-1-methyl-N-morpholino-1H-pyrazolo[4,3-c]quinoline-8-carboxamide]: the concentration giving a half-maximal response (EC50) in test [1] lay in the range of 1 to 5 nM. In addition, the “EC50 selectivity (SDMA assay)” value in test [1] (setting [3]) was found to be 233. In test [2], this compound displayed a CC50 of 100 to 1000 nM.
On the same counts, the results for `[2H]C([2H])(c1ccc(C(F)(F)F)cn1)N(C(=O)c1ccc2nc(N)c3cnn(C([2H])([2H])[2H])c3c2c1)N(C)C(=O)C1CC1` [Example 254, 4-amino-N′-(cyclopropanecarbonyl)-N′-methyl-1-(methyl-d3)-N-((5-(trifluoromethyl)pyridin-2-yl)methyl-d2)-1H-pyrazolo[4,3-c]quinoline-8-carbohydrazide] are less than 1 nM, 266 and less than 100 nM.
On the same counts, the results for `Cn1ncc2c(N)nc3cc(F)c(C(=O)N(Cc4nc5cc(Cl)ccc5n4C)N4CCCCC4=O)cc3c21` [Example 212, 4-Amino-N-[(5-chloro-1-methyl-benzimidazol-2-yl)methyl]-7-fluoro-1-methyl-N-(2-oxo-1-piperidyl)pyrazolo[4,3-c]quinoline-8-carboxamide] are 1 to 5 nM, 80 and less than 100 nM.
As to `CN(C(=O)C1CC1)N(Cc1ccc(C(F)(F)F)cn1)C(=O)c1ccc2nc(N)c3cnn(C)c3c2c1` [Example 111, 4-amino-N′-(cyclopropanecarbonyl)-N′,1-dimethyl-N-[[5-(trifluoromethyl)-2-pyridyl]methyl]pyrazolo[4,3-c]quinoline-8-carbohydrazide], in test [1], the EC50 was less than 1 nM. Also, in test [1] (setting [3]), the “EC50 selectivity (SDMA assay)” value is 129. This compound also showed a CC50 in test [2] of less than 100 nM.
On the same counts, the results for `CC(=O)N(C)N(Cc1ccc(F)cc1F)C(=O)c1ccc2nc(N)c3cnn(C)c3c2c1` [Example 47, N′-acetyl-4-amino-N-[(2,4-difluorophenyl)methyl]-N′,1-dimethyl-pyrazolo[4,3-c]quinoline-8-carbohydrazide] are less than 1 nM, 121 and less than 100 nM.
On the same counts, the results for `Cn1ncc2c(N)nc3cc(F)c(C(=O)N(Cc4ccc(C(F)(F)F)cn4)N4C[C@H]5CC[C@@H](C4)O5)cc3c21` [Example 309, 4-amino-N-((1R,5S)-8-oxa-3-azabicyclo[3.2.1]octan-3-yl)-7-fluoro-1-methyl-N-((5-(trifluoromethyl)pyridin-2-yl)methyl)-1H-pyrazolo[4,3-c]quinoline-8-carboxamide] are 1 to 5 nM, 52 and less than 100 nM.
Consider `CC(=O)N(C)N(Cc1sc2ccccc2c1Br)C(=O)c1ccc2nc(N)c3cnn(C)c3c2c1` [Example 444, N′-acetyl-4-amino-N-((3-bromobenzo[b]thiophen-2-yl)methyl)-N′,1-dimethyl-1H-pyrazolo[4,3-c]quinoline-8-carbohydrazide], for which, in test [1], the concentration giving a half-maximal response (EC50) is less than 1 nM. Further, the “EC50 selectivity (SDMA assay)” value in test [1] (setting [4]) stood at 117. The compound further came in with a CC50 in test [2] of less than 100 nM.
Consider `CC(=O)N(C)N(Cc1ncc(C(F)(F)F)cc1F)C(=O)c1ccc2nc(N)c3cnn(C)c3c2c1` [Example 271, N′-acetyl-4-amino-N-((3-fluoro-5-(trifluoromethyl)pyridin-2-yl)methyl)-N′,1-dimethyl-1H-pyrazolo[4,3-c]quinoline-8-carbohydrazide], for which the EC50 in test [1] was less than 1 nM. Also, in test [1] (setting [3]), the “EC50 selectivity (SDMA assay)” value is given as 86. This compound also registered a 50% cytotoxic concentration (CC50) in test [2] of less than 100 nM.
